Test results taken from patent US20110020843A1, “LABEL-FREE METHODS RELATED TO PHOSPHODIESTERASES” (priority 2009, published 2011).
Where two headings read alike, the source gives them in different places.

What was measured:
[1] = target: endogenous Gs-coupled β2-adrenergic receptor (Homo sapiens, UniProt P07550); details: A431 cells; Epic DMR vs whole cell cAMP kit (FIG. 3)
Description: For biosensor cellular assays, compound solutions were made by diluting the stored concentrated solutions with the HBSS (1× Hanks balanced salt solution, plus 20 mM Hepes, pH 7.1), and transferred into a 384 well polypropylene compound storage plate to prepare a compound source plate. Two compound source plates were made separately when a two-step assay was performed. In parallel, the cells were washed twice with the HBSS and maintained in 30 μl of the HBSS to prepare a cell assay plate. Both the cell assay plate and the compound source plate(s) were then incubated in the hotel of the reader system. After incubation the baseline wavelengths of all biosensors in the cell assay microplate were recorded and normalized to zero. Afterwards, a 2 to 10 min continuous recording was carried out to establish a baseline, and to ensure that the cells reached a steady state. Cellular responses were then triggered by transferring 10 μl of the compound solutions into the cell assay plate using the on-board liquid handler.

[2] = tested on: quiescent A431 cells (endogenous PDE4 isoforms); assay: Label-free Epic RWG biosensor DMR assay of PDE inhibitors in synchronized quiescent A431 cells; type: cell-based, human; details: for DMR signal induced by PDE inhibitor: each at 12.5 micromolar, 22k cells per well, synchronized in HBSS under low CO2 for 2 hrs, vs vehicle; for DMR signal upon stimulation: synchronized in HBSS buffer for a shorter time (<90 min), data not shown
Description: Cells were typically grown using ˜1 to 2×10^4 cells per well at passage 3 to 15 suspended in 50 μl of the corresponding culture medium in the biosensor microplate, and were cultured at 37° C. under air/5% CO2 for ˜1 day. Except for A431 which was subject to ˜20 hr starvation through continuously culture in the serum-free DMEM, the other cell types were directly assayed without starvation.
Epic® wavelength interrogation system (Corning Inc., Corning, N.Y.) was used for whole cell sensing. This system consists of a temperature-control unit, an optical detection unit, and an on-board liquid handling unit with robotics. The detection unit is centered on integrated fiber optics, and enables kinetic measures of cellular responses with a time interval of ˜15 sec. The compound solutions were introduced by using the on-board liquid handling unit (i.e., pippetting).
The RWG biosensor is capable of detecting minute changes in local index of refraction near the sensor surface. Since the local index of refraction within a cell is a function of density and its distribution of biomass (e.g., proteins, molecular complexes), the biosensor exploits its evanescent wave to non-invasively detect ligand-induced dynamic mass redistribution in native cells. The evanescent wave extends into the cells and exponentially decays over distance, leading to a characteristic sensing volume of ˜150 nm, implying that any optical response mediated through the receptor activation only represents an average over the portion of the cell that the evanescent wave is sampling. The aggregation of many cellular events downstream the receptor activation determines the kinetics and amplitudes of a ligand-induced DMR.
All studies were carried out at a controlled temperature (28° C.). At least two independent sets of experiments, each with at least three replicates, were performed.
We further examined the DMR signal, if any, of the quiescent A431 cells upon treatment with PDE inhibitors. […] The quiescent A431 cells obtained under the same culture condition were used. Here the initial seeding numbers of cells were relatively low (˜20K cells per well in a 384 well Epic biosensor microplate tissue culture treated). […] After washing with the serum free medium, the cells were continuously cultured in the serum free medium for another 24 hrs to reach a quiescent state. Here the quiescent state was largely achieved through serum withdrawl. […] The cell membrane bound carbonic anahydrase is a known sensor for CO2 level.
In FIG. 4 the quiescent cells were achieved primarily through serum withdrawl. We were interested in the quiescent cells achieved through both contact inhibition and serum withdrawl. To do so, much higher initial seeding numbers of cells (>=25k cells per well for the 384 well Epic biosensor microplate) were used. […] Here both quiescent cells were subject to the same synchronization condition (2 hr incubation in the HBSS assay solution in a low CO2 environment).
Here the quiescent A431 cells were used using 22k cells per well in 384 well Epic biosensor microplates, followed by one day (˜24 hrs) culture in serum medium and 1 day (˜24 hrs) serum free medium, and sequential synchronization in the HBSS buffer solution under a relatively low CO2 environment for 2 hrs. […] For comparison, the DMR signal of cells stimulated with the buffer only (“Vehicle”) were included.

[3] = tested on: intracellular cAMP level of A431 cells; assay: Chemiluminescence quantification of cyclic AMP in whole cell lysate; type: cell-based, human
Description: A431 cells were seeded in 96 well TCT microplate at 80000 cells/well, cultured for 20 hrs and starved for an extra 20 hrs. Cells were washed two time with HBSS and incubated with 100 μl of HBSS, Leibovitz's L-15 medium (Gibco) or 1 μM of Acetozamine (Sigma) in HBSS for 2 hrs in the Epic instrument. […] The medium or buffer was removed and cells were lysed in 100 μm al of lysis buffer (from cAMP HTS immunoassay kit, Millipore) containing 1 mM IBMX. 50 μl of cell extracts as well as cAMP standard were then analyzed using the same procedure described by the vendor.
A431 Cells were cultured in a serum rich medium on Corning tissue culture treated 96 well microplate until it reached a high confluency (˜95%). After washing, the cells were continuously cultured in a serum free medium for overnight. At this point, the cells were at ˜100% confluency. After washing with corresponding solution, the cells are incubated at the same low CO2 environment (˜2% CO2) for 2 hr. The cells were then lysed with a cell lysis buffer containing 100 micromolar IBMX to block the PDE activity, followed by cAMP measurements, using the protocol as recommended by the supplier.

Chain of endogenous Gs-coupled β2-adrenergic receptor (P07550 whole entry): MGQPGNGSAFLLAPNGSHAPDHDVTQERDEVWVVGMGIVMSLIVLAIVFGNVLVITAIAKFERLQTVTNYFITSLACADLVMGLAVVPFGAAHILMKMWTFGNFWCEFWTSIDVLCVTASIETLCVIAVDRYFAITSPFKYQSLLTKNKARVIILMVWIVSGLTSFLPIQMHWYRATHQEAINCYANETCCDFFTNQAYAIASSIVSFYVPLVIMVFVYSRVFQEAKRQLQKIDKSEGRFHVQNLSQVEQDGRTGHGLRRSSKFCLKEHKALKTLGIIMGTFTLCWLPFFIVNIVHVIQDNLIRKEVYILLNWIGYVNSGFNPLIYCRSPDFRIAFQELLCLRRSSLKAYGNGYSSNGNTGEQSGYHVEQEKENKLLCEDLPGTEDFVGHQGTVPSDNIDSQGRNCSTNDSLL

Row | SMILES | DMR signal induced by PDE inhibitor [2] | further results
1 | CNC[C@H](O)c1ccc(O)c(O)c1 [epinephrine] | – | potency to activate DMR signal relative to potency to cause whole cell cAMP accumulation [1]: much higher potency
2 | O=C1CN2Cc3c(ccc(Cl)c3Cl)N=C2N1 [anagrelide] | did not result in any detectable DMR signals | –
3 | CCc1ccc2c(-c3cccc(Cl)c3)nc(=O)n(CC)c2n1 [YM-976] | Gs-like DMR signal | –
4 | CC(C)Cn1c(=O)n(C)c(=O)c2[nH]cnc21 [IBMX] | – | impact on intracellular cAMP levels (whole cell lysate) ([3]; 10 nanomolar to 100 micromolar, all synchronization conditions, data not shown): little impact; EC50 ([2]; quiescent A431 (~20K cells per well, serum withdrawl), the three synchronized conditions wherein IBMX led to a detectable DMR signal, read-out: potency of IBMX-induced DMR signal (EC50)): ~10 µM; IBMX-induced DMR signal ([2]; quiescent A431 synchronized in CO2 independent medium L-15, highest doses examined (FIG. 4c)): little DMR signals; IBMX-induced DMR signal ([2]; synchronized in 1×HBSS 20 mM Hepes pH 7.1 with or without acetamolamide, low CO2, 2 hr (FIG. 4A, 4B)): dose-dependent and robust DMR signal; IBMX-induced DMR signal ([2]; synchronized in CO2 independent L-15 medium containing acetamolamide at 1 micromolar (FIG. 4D)): robust DMR signal; DMR signal upon stimulation [2]: inconsistent DMR signal
5 | CC(=O)Nc1nnc(S(N)(=O)=O)s1 [acetazolamide] | – | basal cAMP level ([3]; quiescent A431 synchronized 2 hr, low CO2, in L-15 medium containing 1 micromolar acetazolamide): 0.74±0.1 pmole/160K cells
6 | Cc1[nH]c(=O)c(C#N)cc1-c1ccncc1 [milrinone] | did not result in any detectable DMR signals | –
7 | CCCCOc1cc(CC2CNC(=O)N2)ccc1OC (centres unmarked) [Ro-20-1724] | Gs-like DMR signal | –
8 | COc1ccc([C@@H]2CNC(=O)C2)cc1OC1CCCC1 [R-rolipram] | Gs-like DMR signal | EC50 ([2]; Homo sapiens, A-431, quiescent cells achieved through both contact inhibition and serum withdrawl (>=25k cells per well), 2 hr incubation in HBSS, low CO2, read-out: EC50 of DMR response): 0.25 µM; DMR signal upon stimulation [2]: inconsistent DMR signal
9 | Cc1ccc([N+](=O)[O-])cc1S(=O)(=O)N(C)C [BRL-50481] | did not result in any detectable DMR signals | –
10 | CCCOc1ccccc1-c1nc2nn[nH]c2c(=O)[nH]1 [zaprinast] | did not result in any detectable DMR signals | –
11 | CCCn1c(=O)c(C)cn2nc(N)nc12 [ICI63197] | Gs-like DMR signal | –
12 | Clc1cccc(Nc2nnc(-c3ccccc3)c3ccccc23)c1 [MY-5445] | did not result in any detectable DMR signals | –
13 | COCc1nc2c([nH]1)c(=O)n(C)c(=O)n2CC(C)C [MMPX] | did not result in any detectable DMR signals | –
